In PMC12086093 (Nature Structural & Molecular Biology, 2025):

Tests used:
AasS [1] = molecular target: T1, AasS (Vibrio harveyi, UniProt Q00IB3); assay: cryo-EM structure; assay type: binding; conditions: 1.5 mM ATP, no Mg2+; hexamer; phosphate density not continuous
T1 sequence (Q00IB3 1-533): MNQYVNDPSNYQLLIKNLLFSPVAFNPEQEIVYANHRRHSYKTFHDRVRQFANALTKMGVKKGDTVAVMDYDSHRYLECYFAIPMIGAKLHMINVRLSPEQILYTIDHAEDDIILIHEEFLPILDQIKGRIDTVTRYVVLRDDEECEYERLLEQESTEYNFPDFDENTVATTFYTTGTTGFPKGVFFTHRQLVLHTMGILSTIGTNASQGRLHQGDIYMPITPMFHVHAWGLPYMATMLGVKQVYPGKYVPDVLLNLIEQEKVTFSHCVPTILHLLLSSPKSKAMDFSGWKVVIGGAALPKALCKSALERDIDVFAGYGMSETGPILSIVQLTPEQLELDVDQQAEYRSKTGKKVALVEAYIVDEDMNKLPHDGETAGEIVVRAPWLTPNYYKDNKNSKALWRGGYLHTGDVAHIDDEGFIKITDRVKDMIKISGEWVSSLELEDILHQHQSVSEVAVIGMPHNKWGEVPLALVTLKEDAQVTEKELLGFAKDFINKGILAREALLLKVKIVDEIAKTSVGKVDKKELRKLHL

AasS [2] = molecular target: T1, AasS; assay: ITC, one set of sites; assay type: binding
AasS [3] = molecular target: T1, AasS; assay: cryo-EM structure; assay type: binding; conditions: 2 mM MgCl2, 5 mM AMP-PNP; tetramer; ATP site
SEC = molecular target: the molecule itself; assay: SEC

Nc1ncnc2c1ncn2[C@@H]1O[C@H](COP(=O)(O)OP(=O)(O)OP(=O)(O)O)[C@@H](O)[C@H]1O [ATP]
cryo-EM structure (2.45 Å) (AasS [1]): the cryo-EM structure of ATP-liganded AasS remains a hexamer ring

CCOC(=O)CCCCCC(=O)O [E-pim]
Kd (AasS [2]): ~6.45 µM

Nc1ncnc2c1ncn2[C@@H]1O[C@H](COP(=O)(O)OP(=O)(O)NP(=O)(O)O)[C@@H](O)[C@H]1O [AMP-PNP]
cryo-EM structure (2.68 Å) (AasS [3]): continuous density for the bound AMP-PNP cofactor

B1: Vibrio harveyi acyl-ACP synthetase AasS, recombinant with an N-terminal 6xHis-tag (enzyme, UniProt Q00IB3 1-533, looked up)
chain: T1 sequence (Q00IB3 1-533)
stoichiometry N (SEC): 6
